Laboratory results published in EP0448343A2, “Lipopeptide derivatives” (MERCK & CO. INC., priority 1990, dated 1991).
Structures can show the parent of a compound that is named as a salt.

Columns and labels:
Solubility in water = format: physicochemical
Pneumocystis carinii = Pneumocystis carinii pneumonia in immunosuppressed rats; format: in vivo, Sprague-Dawley rats; conditions: eliminating P. carinii cysts in four days, dexasone-immunosuppressed rats, microscopic analysis of stained lung slides
Protocol: In a representative study, the effectiveness of Compound A-1a was determined. Sprague-Dawley rats (weighing approximately 250 grams) were immunosuppressed with dexasone in the drinking water (2.0 mg/L) and maintained on a low protein diet for five weeks to induce the development of pneumocystis pneumonia from a latent infection. […] Six rats (weighing approximately 150 grams) were injected twice daily for four days intravenously (I.V.) via the tail vein with Compound A-1a in 0.25 ml of vehicle (distilled water). A vehicle control was also carried out. All animals continued to receive dexasone in the drinking water and low protein diet during the treatment period. At the completion of the treatment, all animals were sacrificed, the lungs were removed and processed, and the extent of disease determined by microscopic analysis of stained slides.
In a similar experiment, except that the rats were injected intraperitoneally (I.P.) twice daily for four days, the animals were sacrificed, the lungs removed and processed, and the extent of disease determined by microscopic analysis of stained slides.

## CCC(C)CC(C)CCCCCCCCC(=O)NC1CC(O)C(O)NC(=O)C2C(O)CCN2C(=O)C(C(O)CC(N)=O)NC(=O)C(C(O)C(O)c2ccc(OP(=O)(O)O)cc2)NC(=O)C2CC(O)CN2C(=O)C(C(C)O)NC1=O (stereo not shown) [Compound A-1a, 1-[4,5-dihydroxy-N2-(10,12-dimethyl-1-oxotetradecyl)-ornithine-4-[3,4-dihydroxy-4′-O-phosphoryl-homotyrosine]-5-[3-hydroxyglutamine]-6-[3-hydroxyproline]-echinocandin B disodium salt]
Solubility in water
  solubility in water: > 40 mg/mL
Pneumocystis carinii; injected twice daily for four days intravenously (I.V.) via the tail vein
  ED₉₀: approximately 0.6 mg/kg

## CCC(C)CC(C)CCCCCCCCC(=O)NC1CC(O)CNC(=O)C2C(O)CCN2C(=O)C(C(O)CC(N)=O)NC(=O)C(C(O)C(O)c2ccc(OP(=O)(O)O)cc2)NC(=O)C2CC(O)CN2C(=O)C(C(C)O)NC1=O (stereo not shown) [Compound A-2a, 1-[4-hydroxy-N2-(10,12-dimethyl-1-oxotetradecyl)-ornithine]-4-[3-hydroxy-4′-O-phosphoryl-homotyrosine]-5-[3-hydroxyglutamine]-6-[3-hydroxyproline]echinocandin B disodium salt]
Solubility in water
  solubility: > 85 mg/mL
Pneumocystis carinii; injected intraperitoneally (I.P.) twice daily for four days
  ED₉₀: approximately 0.6 mg/kg
